Test results taken from ChEMBL document CHEMBL4834444, “Discovery of novel N-1 substituted pyrazolopyrimidinones as potent, selective PDE2 inhibitors” (Bioorg Med Chem Lett, 2021).
Values after ≈ are worked out from the molar mass of the structure shown.

Columns and labels:
[1] = Kinetic solubility of compound in FaSSIF; assay type: physicochemical; details: read-out: Kinetic_solubility
[2] = Kinetic solubility of compound at pH 7; assay type: physicochemical; details: buffer, read-out: Kinetic_solubility
Phosphodiesterase 6 = assay: Inhibition of human PDE6; assay type: protein assay
Homo sapiens = organism: Homo sapiens; assay: Inhibition of Ion channel (unknown origin)
[3] = target: High affinity cGMP-specific 3',5'-cyclic phosphodiesterase 9A (Homo sapiens, UniProt O76083); assay: Inhibition of human PDE9
[4] = target: T1, PXR (nuclear receptor subfamily 1 group I member 2) (Homo sapiens, UniProt O75469); assay: Inhibition of human PXR at 10 uM
T1 sequence (O75469 whole entry): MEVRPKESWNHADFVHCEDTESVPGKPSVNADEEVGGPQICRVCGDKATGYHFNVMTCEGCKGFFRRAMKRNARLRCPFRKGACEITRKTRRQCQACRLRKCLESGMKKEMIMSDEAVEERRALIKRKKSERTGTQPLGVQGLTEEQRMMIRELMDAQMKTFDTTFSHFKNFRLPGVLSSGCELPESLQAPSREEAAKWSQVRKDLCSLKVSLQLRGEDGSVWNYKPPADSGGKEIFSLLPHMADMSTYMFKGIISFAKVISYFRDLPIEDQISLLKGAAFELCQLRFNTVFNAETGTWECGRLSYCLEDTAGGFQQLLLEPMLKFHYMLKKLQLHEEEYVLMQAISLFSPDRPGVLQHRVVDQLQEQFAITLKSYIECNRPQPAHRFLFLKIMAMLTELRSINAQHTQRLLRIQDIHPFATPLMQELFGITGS

[5] = Half life in rat; assay type: ADME; details: in vivo
[6] = Inhibition of human PDE8
[7] = Inhibition of human PDE3
Cytochrome P450 2C9 = Cytochrome P450 2C9 (Homo sapiens, UniProt P11712); assay: Inhibition of CYP2C9 (unknown origin); assay type: ADME
[8] = Plasma protein binding in rhesus monkey assessed as unbound fraction; assay type: ADME, cell-free, Macaca mulatta
[9] = Inhibition of human PDE1
[10] = Plasma protein binding in rat assessed as unbound fraction; assay type: ADME, cell-free
Cytochrome P450 2D6 = Cytochrome P450 2D6 (Homo sapiens, UniProt P10635); assay: Inhibition of CYP2D6 (unknown origin); assay type: ADME
Phosphodiesterase 7 = Phosphodiesterase 7 (Homo sapiens, UniProt Q13946+Q9NP56); assay: Inhibition of human PDE7; assay type: protein assay
Cytochrome P450 3A4 = Cytochrome P450 3A4 (Homo sapiens, UniProt P08684); assay: Inhibition of CYP3A4 (unknown origin); assay type: ADME
[11] = target: cAMP and cAMP-inhibited cGMP 3',5'-cyclic phosphodiesterase 10A (Homo sapiens, UniProt Q9Y233); assay: Inhibition of human PDE10
[12] = Mean residence time in rat; assay type: ADME; details: in vivo
Phosphodiesterase 4 = Phosphodiesterase 4 (Homo sapiens, UniProt P27815+Q08499+Q07343+Q08493); assay: Inhibition of human PDE4; assay type: protein assay
[13] = target: Dual 3',5'-cyclic-AMP and -GMP phosphodiesterase 11A (Homo sapiens, UniProt Q9HCR9); assay: Inhibition of human PDE11
[14] = Kinetic solubility of compound at pH 2; assay type: physicochemical; details: buffer, read-out: Kinetic_solubility
[15] = Plasma clearance in rat; assay type: ADME
[16] = Plasma protein binding in human assessed as unbound fraction; assay type: ADME, cell-free
[17] = target: cGMP-specific 3',5'-cyclic phosphodiesterase (Homo sapiens, UniProt O76074); assay: Inhibition of human PDE5

Cytochrome P450 2C9, sequence (P11712 whole entry): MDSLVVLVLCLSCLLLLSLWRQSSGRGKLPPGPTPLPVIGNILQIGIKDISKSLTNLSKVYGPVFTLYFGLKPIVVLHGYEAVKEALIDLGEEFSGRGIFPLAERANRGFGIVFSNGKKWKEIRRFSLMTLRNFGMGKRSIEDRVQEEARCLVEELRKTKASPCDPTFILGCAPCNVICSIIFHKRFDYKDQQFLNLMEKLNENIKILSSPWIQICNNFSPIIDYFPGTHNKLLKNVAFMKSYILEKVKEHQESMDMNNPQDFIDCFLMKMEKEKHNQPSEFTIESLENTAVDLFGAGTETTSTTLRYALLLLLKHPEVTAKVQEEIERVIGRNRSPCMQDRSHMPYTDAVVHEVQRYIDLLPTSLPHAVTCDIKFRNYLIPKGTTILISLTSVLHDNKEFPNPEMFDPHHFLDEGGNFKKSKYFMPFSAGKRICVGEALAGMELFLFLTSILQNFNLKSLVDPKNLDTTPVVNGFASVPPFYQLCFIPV
High affinity cGMP-specific 3',5'-cyclic phosphodiesterase 9A, sequence (O76083 whole entry): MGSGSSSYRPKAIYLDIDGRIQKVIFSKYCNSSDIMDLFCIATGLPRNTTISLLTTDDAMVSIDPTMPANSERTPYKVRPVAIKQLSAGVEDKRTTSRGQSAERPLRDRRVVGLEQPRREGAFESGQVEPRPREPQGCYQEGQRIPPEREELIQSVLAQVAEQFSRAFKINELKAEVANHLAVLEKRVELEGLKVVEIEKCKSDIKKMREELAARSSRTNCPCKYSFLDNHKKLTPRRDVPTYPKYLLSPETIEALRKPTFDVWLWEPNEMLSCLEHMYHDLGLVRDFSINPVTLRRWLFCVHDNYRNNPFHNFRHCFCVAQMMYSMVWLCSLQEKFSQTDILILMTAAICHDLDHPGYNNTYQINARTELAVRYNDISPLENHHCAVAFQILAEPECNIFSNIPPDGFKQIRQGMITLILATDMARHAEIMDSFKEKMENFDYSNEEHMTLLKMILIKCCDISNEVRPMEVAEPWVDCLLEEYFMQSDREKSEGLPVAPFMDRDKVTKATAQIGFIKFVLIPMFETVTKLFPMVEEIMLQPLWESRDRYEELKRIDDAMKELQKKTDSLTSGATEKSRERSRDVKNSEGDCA
Dual 3',5'-cyclic-AMP and -GMP phosphodiesterase 11A, sequence (Q9HCR9 whole entry): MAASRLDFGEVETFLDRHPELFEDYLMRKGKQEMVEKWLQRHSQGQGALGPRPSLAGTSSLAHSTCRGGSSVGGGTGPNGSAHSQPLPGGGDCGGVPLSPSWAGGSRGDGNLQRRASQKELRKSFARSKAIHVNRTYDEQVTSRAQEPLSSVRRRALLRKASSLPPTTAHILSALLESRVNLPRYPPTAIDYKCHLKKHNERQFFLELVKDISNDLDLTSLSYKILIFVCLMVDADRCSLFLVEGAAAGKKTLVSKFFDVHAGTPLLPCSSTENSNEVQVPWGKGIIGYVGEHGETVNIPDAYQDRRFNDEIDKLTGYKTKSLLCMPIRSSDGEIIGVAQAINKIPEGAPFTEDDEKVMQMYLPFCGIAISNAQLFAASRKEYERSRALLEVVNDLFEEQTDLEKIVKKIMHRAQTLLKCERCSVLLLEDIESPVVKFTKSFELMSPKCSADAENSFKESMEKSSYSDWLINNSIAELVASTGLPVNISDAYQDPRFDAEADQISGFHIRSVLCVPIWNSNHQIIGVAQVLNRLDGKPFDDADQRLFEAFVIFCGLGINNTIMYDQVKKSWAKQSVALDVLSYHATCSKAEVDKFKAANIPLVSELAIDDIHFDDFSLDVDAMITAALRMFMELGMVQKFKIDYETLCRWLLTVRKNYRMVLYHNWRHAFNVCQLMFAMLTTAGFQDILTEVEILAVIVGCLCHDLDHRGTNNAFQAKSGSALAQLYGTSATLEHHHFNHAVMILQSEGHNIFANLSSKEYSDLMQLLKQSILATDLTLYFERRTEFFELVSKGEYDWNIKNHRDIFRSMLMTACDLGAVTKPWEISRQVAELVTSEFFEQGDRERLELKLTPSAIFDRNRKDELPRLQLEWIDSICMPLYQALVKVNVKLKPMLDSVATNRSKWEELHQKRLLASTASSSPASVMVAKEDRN
cAMP and cAMP-inhibited cGMP 3',5'-cyclic phosphodiesterase 10A, sequence (Q9Y233 whole entry): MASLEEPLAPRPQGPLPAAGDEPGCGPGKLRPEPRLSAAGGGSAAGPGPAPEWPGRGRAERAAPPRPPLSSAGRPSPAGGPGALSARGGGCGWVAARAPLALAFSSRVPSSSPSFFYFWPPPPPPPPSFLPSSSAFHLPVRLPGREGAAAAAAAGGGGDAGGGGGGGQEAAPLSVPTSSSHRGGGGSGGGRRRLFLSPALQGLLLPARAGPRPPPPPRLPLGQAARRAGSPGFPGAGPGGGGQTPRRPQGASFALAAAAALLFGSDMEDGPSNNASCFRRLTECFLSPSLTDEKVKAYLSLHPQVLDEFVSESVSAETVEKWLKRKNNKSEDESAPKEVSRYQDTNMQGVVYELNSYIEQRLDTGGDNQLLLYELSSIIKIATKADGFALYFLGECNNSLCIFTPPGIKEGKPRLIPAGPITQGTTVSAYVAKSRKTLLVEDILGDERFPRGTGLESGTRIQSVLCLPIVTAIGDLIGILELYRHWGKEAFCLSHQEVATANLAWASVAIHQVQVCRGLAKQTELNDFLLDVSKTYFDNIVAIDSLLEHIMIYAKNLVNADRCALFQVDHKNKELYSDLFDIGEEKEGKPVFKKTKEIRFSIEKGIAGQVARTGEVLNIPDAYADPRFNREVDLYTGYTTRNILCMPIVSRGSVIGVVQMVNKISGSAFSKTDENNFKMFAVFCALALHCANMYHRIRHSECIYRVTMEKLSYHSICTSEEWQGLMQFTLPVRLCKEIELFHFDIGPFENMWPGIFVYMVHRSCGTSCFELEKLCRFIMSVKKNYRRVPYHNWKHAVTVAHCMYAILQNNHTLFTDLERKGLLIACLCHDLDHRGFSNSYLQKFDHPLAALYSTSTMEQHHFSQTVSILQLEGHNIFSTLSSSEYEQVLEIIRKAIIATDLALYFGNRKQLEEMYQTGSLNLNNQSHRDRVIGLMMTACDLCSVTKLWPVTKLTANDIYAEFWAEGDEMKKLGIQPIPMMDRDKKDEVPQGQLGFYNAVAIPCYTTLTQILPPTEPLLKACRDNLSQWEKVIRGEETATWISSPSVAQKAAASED
Cytochrome P450 3A4, sequence (P08684 whole entry): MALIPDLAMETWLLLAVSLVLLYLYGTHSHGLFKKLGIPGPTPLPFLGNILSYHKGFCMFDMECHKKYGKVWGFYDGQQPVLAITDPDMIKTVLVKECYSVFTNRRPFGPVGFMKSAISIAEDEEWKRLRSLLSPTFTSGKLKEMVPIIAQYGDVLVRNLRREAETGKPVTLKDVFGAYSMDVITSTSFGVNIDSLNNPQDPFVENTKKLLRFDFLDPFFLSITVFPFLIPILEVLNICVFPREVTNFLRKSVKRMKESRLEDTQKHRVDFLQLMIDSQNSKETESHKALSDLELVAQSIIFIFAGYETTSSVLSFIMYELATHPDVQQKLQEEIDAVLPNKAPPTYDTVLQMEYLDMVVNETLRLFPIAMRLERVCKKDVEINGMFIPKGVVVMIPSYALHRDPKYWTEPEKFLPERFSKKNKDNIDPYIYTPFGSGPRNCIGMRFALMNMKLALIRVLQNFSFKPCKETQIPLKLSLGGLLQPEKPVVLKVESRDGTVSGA
Cytochrome P450 2D6, sequence (P10635 whole entry): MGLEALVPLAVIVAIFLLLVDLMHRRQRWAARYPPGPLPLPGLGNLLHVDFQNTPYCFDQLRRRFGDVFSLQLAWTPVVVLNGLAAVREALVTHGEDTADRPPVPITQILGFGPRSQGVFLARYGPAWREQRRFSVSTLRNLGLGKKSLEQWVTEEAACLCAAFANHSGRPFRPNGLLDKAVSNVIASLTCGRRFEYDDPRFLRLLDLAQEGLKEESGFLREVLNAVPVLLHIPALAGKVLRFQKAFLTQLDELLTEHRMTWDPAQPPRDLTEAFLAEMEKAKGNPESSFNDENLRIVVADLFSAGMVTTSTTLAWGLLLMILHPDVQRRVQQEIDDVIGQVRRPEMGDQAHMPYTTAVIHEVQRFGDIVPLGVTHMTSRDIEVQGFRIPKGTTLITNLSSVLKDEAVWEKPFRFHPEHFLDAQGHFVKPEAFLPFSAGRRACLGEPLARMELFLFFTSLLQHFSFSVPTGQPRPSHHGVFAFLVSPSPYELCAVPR

Row | Compound | solubility kinetic [1] | solubility kinetic [2] | IC50 (Phosphodiesterase 6) | INH (Homo sapiens) | IC50 [3] | inhibition at 10 µM [4] | half-life [5] | IC50 [6] | IC50 [7] | INH (Cytochrome P450 2C9) | fraction unbound [8] | IC50 [9] | fraction unbound [10] | INH (Cytochrome P450 2D6) | IC50 (Phosphodiesterase 7) | INH (Cytochrome P450 3A4) | IC50 [11] | MRT [12] | IC50 (Phosphodiesterase 4) | IC50 [13] | also measured
1 | Cc1nc2c([C@H](C)c3ccc(C(C)(C)C)cc3)nn(CCF)c2c(=O)[nH]1 | 177 µM (≈ 63.1 µg/mL) | 20 µM (≈ 7.13 µg/mL) | 11 µM | 17 µM | > 50 µM | 45% | 1.4 h | > 50 µM | 5.7 µM | > 50 µM | 0.016 | > 60 µM | 0.014 | > 50 µM | > 75 µM | > 50 µM | 5.8 µM | 0.8 h | 3.3 µM | 0.6 µM | solubility kinetic [14]: 60 µM (≈ 21.4 µg/mL); clearance [15]: 49 mL/min/kg; fraction unbound [16]: 0.009; IC50 [17]: 21 µM
2 | Cc1nc2c([C@H](C)c3ccc(C(F)(F)F)c(F)c3)nn(CCO)c2c(=O)[nH]1 | 148 µM (≈ 56.9 µg/mL) | 115 µM (≈ 44.2 µg/mL) | 27 µM | 9.6 µM | > 50 µM | 16% | 3.1 h | > 50 µM | 1.8 µM | > 50 µM | 0.035 | > 60 µM | 0.049 | > 50 µM | > 75 µM | 44 µM | 18 µM | 2.5 h | 3.5 µM | 6.2 µM | solubility kinetic [14]: 117 µM (≈ 45 µg/mL); clearance [15]: 24 mL/min/kg; fraction unbound [16]: 0.03; IC50 [17]: 23 µM
